Here are results for six compounds from US10821115B2, “Compounds that inhibit Mcl-1 protein” (priority 2017, dated 2020).

pIC50: −log10 of the molar value. Read-outs that look alike come from different tables or passages of the source.

This assay relates to human multiple myeloma cell line, OPM-2. Description: Cell viability assay (OPM-2 10 FBS), CellTiter-Glo. It is filed as cell-based. The gist of the method:
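Serially diluted test compounds are incubated 16 h with cells (3000/well) in RPMI 1640 supplemented with 10% FBS. Viability is then measured by luminescence and IC50 calculated by 4-parameter logistic fit.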

Where [1] appears, read: Homo sapiens, OPM-2, 16 h, read-out: OPM-2 10% FBS IC50 IP, OPM-2 cells, 10% FBS, 16 h, CellTiter-Glo.
Setting [2] is: Homo sapiens, OPM-2, 16 h, read-out: OPM-2 10% FBS IC50 IP, OPM-2 cells, 10% FBS, 16 h incubation.

Regarding `COC(=O)C(C)(C)NC(=O)C[C@]1(OC)/C=C/C[C@H](C)[C@@H](C)S(=O)(=O)NC(=O)c2ccc3c(c2)N(C[C@@H]2CC[C@H]21)C[C@@]1(CCCc2cc(Cl)ccc21)CO3` [Example 100544, methyl N-(((1S,3′R,6′R,7′S,8′E,11′S,12′R)-6-chloro-7′-methoxy-11′,12′-dimethyl-13′,13′-dioxido-15′-oxo-3,4-dihydro-2H-spiro[naphthalene-1,22′-[20]oxa[13]thia[1,14]diazatetracyclo [14.7.2.0~3,6~.0~19,24~]pentacosa[8,16,18,24]tetraen]-7′-yl)acetyl)-2-methylalaninate], the pIC50 under setting [1] was 6.51.

As to `C[C@@H]1[C@@H](C)C/C=C/[C@@](O)(C#C[Si](C)(C)C)[C@@H]2CC[C@H]2CN2C[C@@]3(CCCc4cc(Cl)ccc43)COc3ccc(cc32)C(=O)NS1(=O)=O` [Example 100243, (1S,3′R,6′R,7′S,8′E,11′S,12′R)-6-chloro-7′-hydroxy-11′,12′-dimethyl-7′-((trimethylsilyl)ethynyl)-3,4-dihydro-2H,15′H-spiro[naphthalene-1,22′-[20]oxa[13]thia[1,14]diazatetracyclo [14.7.2.0~3,6~.0~19,24~]pentacosa[8,16,18,24]tetraen]-15′-one 13′,13′-dioxide], the pIC50 (read-out: OPM-2 10% FBS IC50 IP, OPM-2 cells, 10% FBS, 16 h, CellTiter-Glo) was 5.06.

Regarding `CO[C@@]1(CN2CCN3CCCC[C@H]3C2)/C=C/C[C@H](C)[C@@H](C)S(=O)(=O)NC(=O)c2ccc3c(c2)N(C[C@@H]2CC[C@H]21)C[C@@]1(CCCc2cc(Cl)ccc21)CO3` [Example 79, (1S,3′R,6′R,7′S,8′E,11′S,12′R)-6-chloro-7′-methoxy-11′,12′-dimethyl-7′-((9aS)-octahydro-2H-pyrido[1,2-a]pyrazin-2-ylmethyl)-3,4-dihydro-2H,15′H-spiro[naphthalene-1,22′-[20]oxa[13]thia[1,14]diazatetracyclo [14.7.2.0~3,6~.0~19,24~]pentacosa[8,16,18,24]tetraen]-15′-one 13′,13′-dioxide], under setting [2], the pIC50 is 6.61.

For `C[C@@H]1[C@@H](C)C/C=C/[C@](O)(C#CCCc2ccccn2)[C@@H]2CC[C@H]2CN2C[C@@]3(CCCc4cc(Cl)ccc43)COc3ccc(cc32)C(=O)NS1(=O)=O` [Example 100455, (1S,3′R,6′R,7′R,8′E,11′S,12′R)-6-chloro-7′-hydroxy-11′,12′-dimethyl-7′-(4-(2-pyridinyl)-1-butyn-1-yl)-3,4-dihydro-2H,15′H-spiro[naphthalene-1,22′-[20]oxa[13]thia[1,14]diazatetracyclo [14.7.2.0~3,6~.0~19,24~]pentacosa[8,16,18,24]tetraen]-15′-one 13′,13′-dioxide], under setting [1], the negative-log IC50 (pIC50) is 6.85.

With `CCO[C@]1(CN2CCN3CCOC[C@@H]3C2)/C=C/C[C@H](C)[C@@H](CCOC)S(=O)(=O)NC(=O)c2ccc3c(c2)N(C[C@@H]2CC[C@H]21)C[C@@]1(CCCc2cc(Cl)ccc21)CO3` [Example 13, (1 S,3′R,6′R,7′R,8′E,11′S,12′R)-6-chloro-7′-ethoxy-7′-((9aS)-hexahydropyrazino[2,1-c][1,4]oxazin-8(1H)-ylmethyl)-12′-(2-methoxyethyl)-11′-methyl-3,4-dihydro-2H,15′H-spiro[naphthalene-1,22′-[20]oxa[13]thia[1,14]diazatetracyclo[14.7.2.0-3,6˜.0˜19,24˜]pentacosa[8,16,18,24]tetraen]-15′-one 13′,13′-dioxide], under setting [2], the pIC50 was 7.20.

In the case of `CO[C@@]1(CC(N)=O)/C=C/C[C@H](C)[C@@H](C)S(=O)(=O)NC(=O)c2ccc3c(c2)N(C[C@@H]2CC[C@H]21)C[C@@]1(CCCc2cc(Cl)ccc21)CO3` [Example 100589, 2-((1S,3′R,6′R,7′S,8′E,11′S,12′R)-6-chloro-7′-methoxy-11′,12′-dimethyl-13′,13′-dioxido-15′-oxo-3,4-dihydro-2H-spiro[naphthalene-1,22′-[20]oxa[13]thia[1,14]diazatetracyclo [14.7.2.0~3,6~.0~19,24~]pentacosa[8,16,18,24]tetraen]-7′-yl)acetamide], the pIC50 under setting [1] is 5.48.
